Experimental data: paper PMC3388044, “Probing of Exosites Leads to Novel Inhibitor Scaffolds of HCV NS3/4A Proteinase” (PLoS ONE, 2012)

Legend:
[1] = target: T1, HCV NS3/4A (wild-type) (Hepatitis C virus genotype 1b, UniProt O92972); test: NS3/4A activity assay with FRET peptide substrate, wild-type enzyme; assay type: biochemical, HCV genotype 1b, strain HC-J4; settings: wild-type NS3/4A 10 nM, Ac-DE-D(Edans)-EE-Abu-ψ-[COO]-AS-K(Dabsyl)-NH2 10 µM, 30 min pre-incubation; read-out: NS3/4A IC50
T1 construct: The NS3/4A construct represented the individual NS3 proteinase domain N-terminally fused with an NS4A co-factor; 6xHis; purchased AnaSpec (Fremont, CA)
T1 sequence (O92972 1027-1208): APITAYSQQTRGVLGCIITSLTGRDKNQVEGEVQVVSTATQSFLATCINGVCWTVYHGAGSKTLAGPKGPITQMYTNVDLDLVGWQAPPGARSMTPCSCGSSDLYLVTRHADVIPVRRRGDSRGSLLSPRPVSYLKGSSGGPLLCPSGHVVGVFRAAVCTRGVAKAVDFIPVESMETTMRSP
From the text: (§1) Reagents were purchased from Sigma unless indicated otherwise. The FRET substrate Ac-DE-D(Edans)-EE-Abu-ψ-[COO]-AS-K(Dabsyl)-NH2, purified recombinant wild-type NS3/4A from HCV genotype 1b, strain HC-J4, and the mutants with the V36M, R155K, A156T, D168A and V170A resistance mutations were from AnaSpec (Fremont, CA). The NS3/4A construct represented the individual NS3 proteinase domain N-terminally fused with an NS4A co-factor and tagged with a 6xHis tag. NS3/4A was in active form and the pre-activation by pep-4A or pep4AK was not necessary. Pyroglutamic acid-Arg-Thr-Lys-Arg-7-amino-4-methylcoumarin was from Peptides International (Louisville, KY). West Nile virus NS2B-NS3 proteinase (strain NY99) was expressed, purified and refolded to restore its functional activity as described earlier. The pET15b-Den2-CF40-Gly-NS3pro 185 plasmid encoding the Dengue virus type 2 NS2B-NS3 protease was a kind gift of Dr. Subhash Vasudevan (Program in Emerging Infectious Diseases, DUKE-NUS Graduate Medical School, Singapore). DV NS2B-NS3 proteinase was expressed purified and refolded to restore its functional activity as described previously, [70]. The expression of the soluble C-terminally truncated human furin construct in Sf9 insect cells (an ovarian cell line from fall armyworm Spodoptera frugiperda; Invitrogen, Carlsbad, CA) infected with the recombinant baculovirus and purification of soluble furin from the medium were described earlier. Original human hepatocarcinoma Huh7 cells were obtained from ATCC (Manassas, VA).
The NS3/4A activity assay was performed at 37°C in triplicate in wells of a 96-well plate in 0.2 ml 50 mM HEPES, pH 7.5, containing 100 mM NaCl, 10 mM DTT, 20% glycerol, the Ac-DE-D(Edans)-EE-Abu-ψ-[COO]-AS-K(Dabsyl)-NH2 substrate (10 µM) and the NS3/4A enzyme (10 nM). Reaction velocity was monitored continuously at λex = 355 nm and λem = 500 nm for 10 min using a Spectramax Gemini EM fluorescence spectrophotometer (Molecular Devices, Sunnyvale, CA) and the initial rate of reaction v was recorded for each reaction. There was no significant additional absorption by compounds 1–8 we identified, which might interfere with NS3/4A assay. Compound stock solutions (10 mM) were made in 100% DMSO. Stocks were then diluted using the assay buffer. As a result, the final DMSO concentration was always below 1% in the assay reactions.
(§2) To measure the inhibitory potency of the compounds, their increasing concentrations were pre-incubated with the individual proteinases in the corresponding buffer for 30 min at ambient temperature. At least, 7–9 different concentrations were used for each inhibitor. The residual activity of the enzymes was then measured as above. The IC50 values of the inhibitory compounds were calculated by determining the concentrations of the compounds needed to inhibit 50% of the enzyme activity against the peptide substrate. GraphPad Prism was used as fitting software.

[2] = target: T2, DV2 NS2B-NS3 proteinase (Dengue virus type 2, UniProt P29990); test: DV2 NS2B-NS3 proteinase activity assay (cross-reactivity); assay type: biochemical; settings: pyroglutamic acid-Arg-Thr-Lys-Arg-7-amino-4-methylcoumarin substrate
T2 construct: The pET15b-Den2-CF40-Gly-NS3pro 185 plasmid encoding the Dengue virus type 2 NS2B-NS3 protease; made in house
T2 sequence (P29990 1476-1653): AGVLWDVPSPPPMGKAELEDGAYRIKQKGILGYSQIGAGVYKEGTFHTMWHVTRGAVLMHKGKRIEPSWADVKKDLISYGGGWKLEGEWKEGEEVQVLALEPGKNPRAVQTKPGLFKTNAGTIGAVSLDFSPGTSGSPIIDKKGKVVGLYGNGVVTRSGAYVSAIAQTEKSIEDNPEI
From the text: as §1
(§3) The activity of furin and both WNV and DV2 NS2B-NS3 proteinases (10 nM each) was measured in triplicate in 0.2 ml 20 mM Tris-HCl buffer, pH 8.0, containing 20% glycerol and 0.005% Brij 35 (for furin – 100 mM HEPES, pH 7.5, containing 1 mM CaCl2, 1 mM β-mercaptoethanol and 0.005% Brij 35) and pyroglutamic acid-Arg-Thr-Lys-Arg-7-amino-4-methylcoumarin (10 µM) as a substrate (λex = 360 nm; λem = 465 nm) as described earlier.
as §2

[3] = target: WNV NS2B-NS3 proteinase; test: WNV NS2B-NS3 proteinase activity assay (cross-reactivity); assay type: biochemical, West Nile virus (strain NY99); settings: pyroglutamic acid-Arg-Thr-Lys-Arg-7-amino-4-methylcoumarin substrate
From the text: as §1, §3, §2

Row | Compound | IC50 [1] [µM] | IC50 [2] [µM] | IC50 [3] [µM]
1 | O=C(Nc1ccccc1)c1cc(S(=O)(=O)Nc2nc3ncccc3[nH]2)c(SSc2cc(Cl)c(C(=O)Nc3ccccc3)cc2S(=O)(=O)Nc2nc3ncccc3[nH]2)cc1Cl [Compound 1] | 0.183 | 19.7 | 21.9
2 | Clc1ccc(OCc2nn3c(CCc4nnc5sc(COc6ccc(Cl)cc6)nn45)nnc3s2)cc1 [Compound 2] | 0.3 | > 100 | > 100
3 | Cc1n[nH]c(=S)n1Nc1nc(SCc2ccccc2)nc2n[nH]c(Cc3nn[nH]n3)c12 [Compound 3] | 0.36 | 34.5 | 18.2
4 | Oc1ccccc1-c1nnc2sc3c(Cl)c4nn5c(-c6ccccc6O)nnc5sc4c(Cl)c3nn12 [Compound 4] | – | 14.3 | 3.7
5 | Clc1ccc(Nc2nc(SCc3ccccc3)nc3n[nH]c(Cc4nc5ccccc5s4)c23)cc1 [Compound 5] | 0.38 | 49.4 | 23.7
6 | S=c1[nH]nc(Nc2nc(SCc3ccccc3)nc3n[nH]c(Cc4nn[nH]n4)c23)s1 [Compound 6] | 0.95 | 20.6 | 12.7
7 | S=c1[nH]n2c(COc3cc(Cl)c(OCc4nnc5sc(=S)[nH]n45)cc3Cl)nnc2s1 [Compound 7] | – | > 100 | 39.1
8 | COc1cc(C2C(C(=O)Nc3ccc(Cl)c(Cl)c3)=C(C)NC(C)=C2C(=O)Nc2ccc(Cl)c(Cl)c2)ccc1O [Compound 8] | – | 38.8 | 21.8
